Among the data in PubChem BioAssay (NCI) are GI50 and TGI values, retold here.

Some test systems named below: K-562 leukemia; HL-60(TB) leukemia; DU-145 prostate; UACC-257 melanoma; SR leukemia; NCI-H23 lung; UACC-62 melanoma; HCT-116 colon; NCI-H226 lung; PC-3 prostate.
Holding throughout (experiment): NCI-60 cell line screen, 48 h

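1) Cells in 96-well plates. 2) Compound, 48 h, 5 concentrations. 3) Linear interpolation between surrounding doses. 4) Unreached endpoint = highest concentration. At the GI50, growth is halved. TGI: total growth inhibition.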 A value given as a limit tells only on which side of the number the result lay.

As to `CCN1CCN(CC(=O)Nc2nc3ccc(NCc4ccc(C)cc4)cc3s2)CC1`, the GI50 was 0.949 µM in the experiment with K-562 leukemia; 1.05 µM in the experiment with HL-60(TB) leukemia; 7.97 µM with DU-145 prostate; 3.33 µM with UACC-257 melanoma; 1.8 µM in the experiment with SR leukemia; 5.91 µM in the experiment with NCI-H23 lung. Also, the GI50 with UACC-62 melanoma was 1.01 µM; with HCT-116 colon, 1.53 µM; with NCI-H226 lung, 7.77 µM. Also, the TGI with K-562 leukemia is 2.09 µM; in the experiment with HL-60(TB) leukemia, 2.25 µM; in the experiment on DU-145 prostate it was 16.4 µM; with UACC-257 melanoma, 11.3 µM; in the experiment on SR leukemia, 8.37 µM; in the experiment with NCI-H23 lung, 13.9 µM. Moreover, the TGI with UACC-62 melanoma turned out to be 2.06 µM; in the experiment on HCT-116 colon, 5.32 µM; in the experiment with NCI-H226 lung, 18.8 µM.
Regarding `C/C(=C\CCc1ccsc1)CC/C=C(\C)CCCN1CCN(CCO)CC1`, the GI50 with K-562 leukemia is 1.61 µM; with HL-60(TB) leukemia, 2.01 µM; with DU-145 prostate, 6.96 µM; in the experiment on UACC-257 melanoma, 4.57 µM; in the experiment with SR leukemia, 1.93 µM; with NCI-H23 lung it was 3.37 µM. For the same compound, the GI50 with UACC-62 melanoma was 1.73 µM; with HCT-116 colon it was 2.71 µM; in the experiment with NCI-H226 lung, 5.68 µM. The TGI came to 4.48 µM in the experiment on K-562 leukemia; 4.14 µM in the experiment on HL-60(TB) leukemia; 19.6 µM in the experiment on DU-145 prostate; 16 µM in the experiment with UACC-257 melanoma; 4.71 µM in the experiment with SR leukemia; 13.4 µM in the experiment on NCI-H23 lung. The TGI in the experiment on UACC-62 melanoma was found to be 3.75 µM; in the experiment with HCT-116 colon it was 9.26 µM; with NCI-H226 lung it was 24.3 µM.
Consider `COc1ccc(/C=c2\sc3nnc(CCC(=O)Nc4cccc(C(F)(F)F)c4)n3c2=O)cc1`, for which the TGI with K-562 leukemia is above 100 µM; in the experiment with HL-60(TB) leukemia, above 71.6 µM; in the experiment on UACC-257 melanoma, above 100 µM; with SR leukemia it was 75.8 µM; in the experiment on NCI-H23 lung, above 100 µM; in the experiment with UACC-62 melanoma, above 100 µM. The TGI in the experiment with HCT-116 colon and in the experiment with NCI-H226 lung was above 100 µM in each case.
For the compound `CN=c1ss/c(=N\C(=S)N(C)C)n1C1CCCCC1`, the TGI with K-562 leukemia was above 31.6 µM; with HL-60(TB) leukemia, above 100 µM; in the experiment on UACC-257 melanoma, above 31.6 µM; in the experiment with NCI-H23 lung, above 31.6 µM; in the experiment on UACC-62 melanoma, above 31.6 µM; with HCT-116 colon it was above 10 µM. In addition, the TGI with NCI-H226 lung was above 31.6 µM.
In the case of `COC(=O)[C@H]1CC(=O)C=C2CCCC21` (stereo not given in full), the TGI with K-562 leukemia, with HL-60(TB) leukemia, in the experiment with UACC-257 melanoma, in the experiment on NCI-H23 lung, in the experiment on UACC-62 melanoma and with HCT-116 colon was above 100 µM throughout.
Regarding `O=[N+]([O-])c1ccc(N/N=C/c2ccccc2O)nc1`, the GI50 in the experiment with PC-3 prostate is 4.3 µM; in the experiment on DU-145 prostate it was 1.35 µM; in the experiment with UACC-257 melanoma, 3.13 µM; in the experiment with NCI-H23 lung, 2.45 µM; with UACC-62 melanoma, 2.61 µM; in the experiment on HCT-116 colon, 0.371 µM. The GI50 in the experiment with NCI-H226 lung is 4.6 µM. Also, the TGI with PC-3 prostate was above 100 µM; in the experiment with DU-145 prostate it was above 100 µM; with UACC-257 melanoma, 25 µM; in the experiment on NCI-H23 lung, above 100 µM; in the experiment with UACC-62 melanoma, 11.6 µM; in the experiment on HCT-116 colon it was above 100 µM. Further, the TGI with NCI-H226 lung was above 100 µM.
On to `O=C1NC(=O)C(N2CCc3ccccc32)=C1c1ccc(Cl)cc1`, for which the GI50 in the experiment on PC-3 prostate was above 22.8 µM; in the experiment on K-562 leukemia, above 25 µM; in the experiment on HL-60(TB) leukemia, 24.3 µM; with DU-145 prostate it was above 25 µM; with UACC-257 melanoma, above 25 µM; with NCI-H23 lung, above 11.4 µM. For the same compound, the GI50 with UACC-62 melanoma was 24.8 µM; in the experiment on HCT-116 colon, above 10.2 µM; with NCI-H226 lung it was above 25 µM. In addition, the TGI with PC-3 prostate, with K-562 leukemia, in the experiment with HL-60(TB) leukemia, in the experiment on DU-145 prostate, with UACC-257 melanoma and in the experiment on NCI-H23 lung was above 25 µM in each case. The figures for the TGI in the experiment on UACC-62 melanoma, with HCT-116 colon and in the experiment with NCI-H226 lung were above 25 µM, above 16.6 µM and above 25 µM, respectively.
Consider `CCOP(=O)(CCN1CCN(CCCCCOc2cc3c(cc2OC)C(=O)N2CCC[C@H]2C=N3)CC1)OCC`, for which the GI50 with K-562 leukemia is 2.37 µM; with HL-60(TB) leukemia, 1.82 µM; with DU-145 prostate, 17.8 µM; in the experiment with UACC-257 melanoma, 15.8 µM; in the experiment on SR leukemia, 1.39 µM; in the experiment on NCI-H23 lung, 16.6 µM. The GI50 was 7.86 µM with UACC-62 melanoma, 7.66 µM with HCT-116 colon and 17.1 µM in the experiment on NCI-H226 lung. In addition, the TGI in the experiment with K-562 leukemia was above 100 µM; with HL-60(TB) leukemia, 8.39 µM; in the experiment on DU-145 prostate, 63.3 µM; in the experiment on UACC-257 melanoma, 37.4 µM; with SR leukemia it was 4.25 µM; in the experiment on NCI-H23 lung, 38.4 µM. Moreover, the TGI in the experiment on UACC-62 melanoma was 24.2 µM; in the experiment on HCT-116 colon it was 80.8 µM; in the experiment on NCI-H226 lung, 65.5 µM.
Consider `CC(N)CN.CC(N)CN.[Cl-].[O]=[Os+2]=[O]` (stereo not given), for which the GI50 was 28.6 µM in the experiment on SR leukemia; above 100 µM in the experiment on NCI-H23 lung; above 100 µM with UACC-62 melanoma; 36.5 µM with HCT-116 colon; above 100 µM in the experiment with NCI-H226 lung. Besides, the TGI in the experiment with SR leukemia, in the experiment with NCI-H23 lung, in the experiment on UACC-62 melanoma, in the experiment on HCT-116 colon and with NCI-H226 lung was above 100 µM throughout.
`O=C1C=CC(=O)c2c1cc1ccccc1c2O`: the TGI in the experiment on PC-3 prostate came out at 19.1 µM; in the experiment on K-562 leukemia it was 4.85 µM; in the experiment on DU-145 prostate it was 28.3 µM; in the experiment with UACC-257 melanoma, 7.91 µM; with NCI-H23 lung it was 27.6 µM; in the experiment with UACC-62 melanoma, 20 µM. In addition, the TGI with HCT-116 colon is 4.05 µM; with NCI-H226 lung it was 37.6 µM.
Turning to `COC(=O)CSc1n[nH]c(-c2ccccc2)n1`, the TGI with K-562 leukemia was above 100 µM; in the experiment with HL-60(TB) leukemia, above 100 µM; in the experiment with UACC-257 melanoma, above 100 µM; in the experiment with SR leukemia, 43.5 µM; in the experiment with NCI-H23 lung it was above 100 µM; in the experiment with UACC-62 melanoma, above 100 µM. The TGI in the experiment on HCT-116 colon and in the experiment on NCI-H226 lung was above 100 µM in each case.
`CC1(C)C(=O)CCC(=O)C(C)(C)C2=CC=C(O2)C(C)(C)C(=O)CCC(=O)C(C)(C)C2=CC=C1O2`: the TGI with K-562 leukemia, in the experiment on HL-60(TB) leukemia, with UACC-257 melanoma, with SR leukemia, with NCI-H23 lung and in the experiment with HCT-116 colon was above 100 µM in each case. In the experiment with NCI-H226 lung, this compound registered a TGI above 100 µM.
